Results taken from US11672813B2, “Bortezomib compositions” (MAIA Pharmaceuticals, Inc., priority 2021, dated 2023).

What was measured:
[1] = Estimated solubility of bortezomib in select non-aqueous solvents (visual, incremental solvent addition); assay type: physicochemical; details: for Observation: approximately 25 mg
Method: The appearance of the solution was recorded.

[2] = Visual dissolution and physical stability of bortezomib formulations with low concentrations of benzyl alcohol or DMSO in water; assay type: physicochemical; details: target 2.5 mg/mL; benzyl alcohol (2% v/v), DMSO (5% v/v) or combination, water added afterwards
Method: Initial formulation experiments with low concentrations of various non-aqueous solvents were conducted targeting a bortezomib concentration of 2.5 mg/mL. Attempts to solubilize bortezomib were conducted using low concentrations of benzyl alcohol (2% v/v), or dimethyl sulfoxide (5% v/v), or a combination of these solvents. […] For these formulations, the non-aqueous solvent was added to bortezomib to dissolve it, followed by addition of water to the bortezomib-solvent mixture.
Various concentrations of DMSO were explored as the non-aqueous component of the formulation (2% v/v to 5% v/v in water). Bortezomib was first completely dissolved in the batch volume of DMSO to form a concentrated “premix” solution prior to making up the batch to the target concentration (2.5 mg/mL) with water. This was done to facilitate the subsequent dissolution of bortezomib in the aqueous component.

Observation ([1]; N-methyl pyrrolidone (NMP)): Completely dissolved after 1 mL
Observation: solvent needed to dissolve approximately 25 mg ([1]; alcohol (ethanol)): Approximately 5.5 mL of solvent
Observation ([1]; benzyl alcohol): Completely dissolved after 0.5 mL
Observation ([1]; dimethyl sulfoxide (DMSO)): Completely dissolved after 0.5 mL
Observation ([1]; glycerol, up to 10 mL): No significant dissolution observed up
Observation ([1]; polyethylene glycol 400, up to 10 mL): No significant dissolution observed up
Observation: solvent needed to dissolve approximately 25 mg ([1]; propylene glycol): Approximately 7 mL of solvent needed
Outcome of dissolution attempt [2]: precipitated after addition of water
SMILES: CC(C)C[C@H](NC(=O)[C@H](Cc1ccccc1)NC(=O)c1cnccn1)B(O)O [Bortezomib, [(1R)-3-methyl-1-[[(2S)-1-oxo-3-phenyl-2-[(pyrazinylcarbonyl)amino]propyl]amino]butyl] boronic acid]
